In patent US20250064875A1, “PHARMACEUTICAL COMPOSITION FOR PREVENTING OR TREATING MUSCLE DISEASES” (KOSA BIO INC., priority 2021, published 2025):

Key:
sarcopenia animal model [1] = assay: Sarcopenia animal model, body composition by DXA; format: in vivo, mice; details: for lean body weight / BMC / BMD(g/cm^2) / fat / fat(%) / tissue area(cm^2): DXA; for lean body weight: C57BL/6 mice, dexamethasone 20 mg/kg i.p. daily, extract 300 mg/kg or FL 0.5 mg/kg oral daily; for BMC / BMD(g/cm^2) / fat / fat(%) / tissue area(cm^2): same model and doses
Method: Specifically, male C57BL/6 mice (7 weeks old, Samtako Bio Korea, Korea) were acclimatized, and their body weight (g), lean body weight (g), fat mass (g), and body fat percentage (%) were measured using dual-energy X-ray absorptiometry (DXA). […] A control group consisted of untreated 5 mice (normal mice) at day 0 of treatment. On days 7 and 14 of treatment, the mice were scanned using DXA to measure body weight, lean body weight, fat mass, and body fat percentage; the results are presented in FIG. 14 and Tables 2 and 3.

sarcopenia animal model [2] = assay: Sarcopenia animal model, excised tissue weights; format: in vivo, mice; details: day 14; for Thymus: dexamethasone 20 mg/kg i.p., extract 300 mg/kg or FL 0.5 mg/kg oral daily
Method: Specifically, male C57BL/6 mice (7 weeks old, Samtako Bio Korea, Korea) were acclimatized, and their body weight (g), lean body weight (g), fat mass (g), and body fat percentage (%) were measured using dual-energy X-ray absorptiometry (DXA). […] A control group consisted of untreated 5 mice (normal mice) at day 0 of treatment.

[3] = test system: C2C12 myoblast cells differentiated to myotubes; assay: Inhibition of myocyte apoptosis: MTT cell viability in dexamethasone-treated myotubes; format: cell-based; details: 10 μM dexamethasone, FL, FV, FI 2.5-20 μg/mL or amino acid controls, 24 hours, FIGS. 4-6
Method: Firstly, C2C12 myoblast cells (from ATCC, USA) were cultured in DMEM supplemented with 10% fetal bovine serum (FBS) and 1% antibiotic-antimycotic at 37° C. under a 5% CO2 atmosphere. Thereafter, the medium was replaced with one containing 2% horse serum (HS) for incubation of additional 72 hours. […] Post-treatment, the cells were observed again under a microscope. The results of the differentiation to myotubes are presented in FIG. 1, and the observations post-dexamethasone treatment in FIG. 2.
After 24 hours, the culture medium was removed, and MTT reagent (5 mg/mL) was added to each well and incubated for 4 hours. Subsequently, DMSO was added to dissolve any precipitates, and the absorbance was read at 570 nm.
Apart from FL, which was found in elderberry extracts, fructose-valine (FV) and fructose-isoleucine (FI) conjugates in which the branched-chain amino acid valine or isoleucine is conjugated to the monosaccharide fructose were also tested for inhibition against myocyte apoptosis. Experiments were conducted in the same manner and conditions as in Experiment Example 1-2, except that FL, FV, or FI was used at concentrations of 2.5, 5, 10, or 20 μg/mL instead of elderberry extracts. As controls, amino acids such as leucine, valine, isoleucine, tryptophan, arginine, tyrosine, glycine, lysine, methionine, phenylalanine, or threonine were used. The cell viability calculated from the treatments with FL, FV, or FI are presented in FIG. 4, and results from amino acid treatments in FIGS. 5 and 6.

TNFα = assay: Inhibition of TNFα expression (qPCR) in dexamethasone-treated myotubes; format: cell-based; details: cells treated with FL, FV or FI 2.5-20 μg/mL, FIG. 8
Method: The cells treated with elderberry extracts as in Experimental Example 1-2 were further treated with trypsin to collect only the cells. After centrifugation of the collected cells at 3,000 rpm for 5 minutes, the supernatant was removed and total RNA was extracted by sequentially treating with RiboEx™ and Hybrid-R™ (GeneAll, Korea). The concentration of the extracted RNA was measured using a Nanodrop, and this RNA was used as a template to synthesize cDNA. The cDNA was synthesized using a mixture of RNA, oligo-(dT) primers, and 2×HyperScript™ RT Master Mix (GeneAll, Korea). Subsequently, real-time PCR (qPCR) was performed using the synthesized cDNA as a template and Power SYBR™ Green PCR Master Mix under standard conditions to confirm the expression of TNFα.
Cells treated with FL, FV, or FI as in Experimental Example 1-3 were trypsinized to collect only the cells, and the level of TNFα expression was examined using the same conditions and methods as described in Experimental Example 2-1.

MuRF-1 = assay: Inhibition of muscle protein expression (qPCR): MuRF-1; format: cell-based; details: cells treated with FL, FV or FI 2.5-20 μg/mL
Source text: (§1) The ability of the elderberry extracts and monosaccharide-BCAA conjugate compounds prepared above to inhibit the expression of muscle proteins was confirmed using the qPCR method. Specifically, muscle RING-finger protein-1 (MuRF-1) and atrogin-1, which are both markers of muscle atrophy, and myostatin, which a negative regulator of skeletal muscle mass, were used as target muscle proteins.
(§2) Using the cells treated with the hot water extract, 50% ethanol extract, or 100% ethanol extract of elderberry described in Experimental Example 1-2, qPCR was performed as described above.
(§3) Using the cells treated with FL, FV, or FI as described in Experimental Example 1-3, qPCR was performed as previously outlined.

atrogin-1 = assay: Inhibition of muscle protein expression (qPCR): atrogin-1; format: cell-based; details: cells treated with FL, FV or FI 2.5-20 μg/mL
Source text: as §1, §2, §3

myostatin = assay: Inhibition of muscle protein expression (qPCR): myostatin; format: cell-based; details: cells treated with FL, FV or FI 2.5-20 μg/mL
Source text: as §1, §2, §3

TM3 cell line = assay: Promotion of testosterone secretion (ELISA) in H2O2-treated Leydig cells; format: cell-based; details: 500 μM H2O2 6 hours; extract 12.5-100 μg/mL or FL 1.25-10 μg/mL; ELISA of medium; FIG. 9
Method: First, the TM3 cell line (from ATCC, USA), which is Leydig cells, were cultured using a standard method. The cultured cells were treated with 500 μM of hydrogen peroxide (H2O2) for 6 hours, followed by the addition of either 12.5, 25, 50, or 100 μg/mL of the hot water extract of elderberry or 1.25, 2.5, 5, or 10 μg/mL of FL (fructose-leucine). Subsequently, ELISA was performed using the cultured cell medium to determine the levels of testosterone, and the results are presented in FIG. 9.

[4] = excised tissue weight, same model and doses
[5] = result in words, sarcopenia mice, 14 days

SMILES	lean body weight (sarcopenia animal model [1]; Day 0)	BMC (sarcopenia animal model [1]; Day 0)	BMD(g/cm^2) (sarcopenia animal model [1]; Day 0)	fat (sarcopenia animal model [1]; Day 0)	fat(%) (sarcopenia animal model [1]; Day 0)	tissue area(cm^2) (sarcopenia animal model [1]; Day 0)	lean body weight (sarcopenia animal model [1]; Day 7)	BMC (sarcopenia animal model [1]; Day 7)	BMD(g/cm^2) (sarcopenia animal model [1]; Day 7)	fat (sarcopenia animal model [1]; Day 7)	fat(%) (sarcopenia animal model [1]; Day 7)	tissue area(cm^2) (sarcopenia animal model [1]; Day 7)	lean body weight (sarcopenia animal model [1]; Day 14)	BMC (sarcopenia animal model [1]; Day 14)	BMD(g/cm^2) (sarcopenia animal model [1]; Day 14)	cell viability reduced by dexamethasone [3]	level of TNFα expression increased by dexamethasone (TNFα)	mRNA expression level of MuRF-1 increased by dexamethasone (MuRF-1)	mRNA expression level of atrogin-1 increased by dexamethasone (atrogin-1)	mRNA expression level of myostatin increased by dexamethasone (myostatin)	other results
C[C@@H]1C[C@H]2[C@@H]3CCC4=CC(=O)C=C[C@]4(C)[C@@]3(F)[C@@H](O)C[C@]2(C)[C@@]1(O)C(=O)CO [Dexamethasone, dexamethasone, reference compound]	18.93 ± 1.42 g	0.23 ± 0.13 g	0.057 ± 0.012 g/cm^2	1.44 ± 0.16 g	7.1 ± 1.07%	13.32 ± 2.03 cm^2	17.53 ± 1.36 g	0.16 ± 0.02 g	0.052 ± 0.004 g/cm^2	1.13 ± 0.34 g	5.99 ± 1.53%	12.41 ± 1.31 cm^2	17.47 ± 0.29 g	0.16 ± 0.01 g	0.057 ± 0.004 g/cm^2	–	–	–	–	–	fat (sarcopenia animal model [1]; Day 14): 1.56 ± 0.34 g; fat(%) (sarcopenia animal model [1]; Day 14): 8.17 ± 1.58%; tissue area(cm^2) (sarcopenia animal model [1]; Day 14): 13.97 ± 0.51 cm^2; Thymus (sarcopenia animal model [2]; excised tissue weight): 0.009 ± 0.004 g; Muscle (sarcopenia animal model [2]; [4]): 0.501 ± 0.064 g; Spleen (sarcopenia animal model [2]; [4]): 0.026 ± 0.01 g
CC[C@H](C)[C@H](NCC1(O)OC[C@@H](O)[C@@H](O)[C@@H]1O)C(=O)O (stereo partly drawn) [FI, fructose-isoleucine]	–	–	–	–	–	–	–	–	–	–	–	–	–	–	–	significantly restored	significantly suppressed	significantly decreased	significantly decreased	significantly decreased	–
CC(C)CC(NCC1(O)OCC(O)C(O)C1O)C(=O)O (stereo not drawn) [FL, fructose-leucine]	18.31 ± 1.43 g	0.19 ± 0.04 g	0.053 ± 0.004 g/cm^2	1.27 ± 0.25 g	6.49 ± 1.03%	13.13 ± 1.08 cm^2	18.05 ± 0.44 g	0.20 ± 0.03 g	0.059 ± 0.009 g/cm^2	1.43 ± 0.53 g	7.31 ± 2.47%	13.83 ± 0.53 cm^2	18.34 ± 0.56 g	0.19 ± 0.04 g	0.056 ± 0.006 g/cm^2	significantly restored	significantly suppressed	significantly decreased	significantly decreased	significantly decreased	concentration of testosterone suppressed by hydrogen peroxide (TM3 cell line): significantly restored; fat (sarcopenia animal model [1]; Day 14): 1.29 ± 0.19 g; fat(%) (sarcopenia animal model [1]; Day 14): 6.57 ± 0.76%; tissue area(cm^2) (sarcopenia animal model [1]; Day 14): 13.66 ± 0.92 cm^2; body weight of the mice (sarcopenia animal model [1]; [5]): restored; lean body weight of the mice (sarcopenia animal model [1]; [5]): restored; tissue areas of the mice (sarcopenia animal model [1]; [5]): restored; Thymus (sarcopenia animal model [2]; excised tissue weight): 0.009 ± 0.002 g; Liver (sarcopenia animal model [2]; [4]): 1.375 ± 0.117 g; Muscle (sarcopenia animal model [2]; [4]): 0.683 ± 0.18 g; Spleen (sarcopenia animal model [2]; [4]): 0.028 ± 0.009 g; weights of the various tissues (sarcopenia animal model [2]; result in words): restored to levels similar to those of the normal control group
CC(C)[C@H](NCC1(O)OC[C@@H](O)[C@H](O)C1O)C(=O)O (stereo partly drawn) [FV, fructose-valine]	–	–	–	–	–	–	–	–	–	–	–	–	–	–	–	significantly restored	significantly suppressed	significantly decreased	significantly decreased	significantly decreased	–
